According to patent publication US8623879B2, “1-heterocyclyl-1,5-dihydro-pyrazolo[3,4-D] pyrimidin-4-one derivates and their use as PDE9A modulators” (Boehringer Ingelheim International GmbH, priority 2008, dated 2014):

Target: T1, human PDE9A2 (Homo sapiens, UniProt O76083)
T1 construct: made in house; host or cells: Sf9 insect cells (infected); crude lysate used as enzyme source
Assay: PDE9A2 enzymatic activity assay (scintillation proximity assay, SPA)
Assay type: biochemical
Conditions: for inhibition at 10 µM: read-out: % inhibition of PDE9A2 (at 10 micromolar concentration), 10 micromolar concentration; for IC50: reported only as range 1-100 or 101-1200 nanomolar, specific value lies within range, read-out: IC50 within range [nanomolar (nM)]

[1] = values above 100% adjusted to 100%

T1 sequence (O76083 1-533 isoform O76083-2): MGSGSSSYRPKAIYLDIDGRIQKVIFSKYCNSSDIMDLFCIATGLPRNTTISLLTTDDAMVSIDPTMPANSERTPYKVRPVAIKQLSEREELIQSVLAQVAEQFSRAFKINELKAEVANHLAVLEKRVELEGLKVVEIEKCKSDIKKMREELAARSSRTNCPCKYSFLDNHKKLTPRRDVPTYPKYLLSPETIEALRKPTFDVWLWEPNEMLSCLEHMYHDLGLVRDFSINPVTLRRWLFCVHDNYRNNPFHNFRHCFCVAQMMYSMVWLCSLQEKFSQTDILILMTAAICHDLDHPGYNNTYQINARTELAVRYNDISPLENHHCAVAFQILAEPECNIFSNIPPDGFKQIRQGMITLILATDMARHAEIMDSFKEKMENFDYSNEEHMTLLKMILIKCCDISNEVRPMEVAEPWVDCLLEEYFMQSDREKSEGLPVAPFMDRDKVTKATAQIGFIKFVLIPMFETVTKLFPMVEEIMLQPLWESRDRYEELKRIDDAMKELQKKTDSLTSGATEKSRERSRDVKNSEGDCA

| inhibition at 10 µM [1] | IC50 | % inhibition of PDE9A2 (at 10 micromolar concentration) (10 micromolar concentration, values above 100% adjusted to 100%) | SMILES |
| --- | --- | --- | --- |
| 97% | 101 to 1200 nM |  | O=C(c1ccccc1)N1CCCC(n2ncc3c(=O)[nH]c(Cc4ccccc4OC(F)(F)F)nc32)C1 (racemic) [Example 163] |
| 93% | 101 to 1200 nM |  | O=C(c1ccccc1)N1CCC(n2ncc3c(=O)[nH]c(CC4CCCC4)nc32)C1 (racemic) [Example 167] |
| 97% | 1 to 100 nM |  | O=c1[nH]c(CC2CCC(F)(F)CC2)nc2c1cnn2C1CCOCC1 [Example 40-6] |
| 97% | 1 to 100 nM |  | COc1ccccc1Cc1nc2c(cnn2C2CCCOC2)c(=O)[nH]1 (racemic) [Example 127] |
| 99% | 1 to 100 nM |  | O=c1[nH]c(CC2CCCC2)nc2c1cnn2C1CCOC1 (racemic) [Example 69] |
| 85% | 101 to 1200 nM |  | COc1cccnc1Cc1nc2c(cnn2C2CCCOC2)c(=O)[nH]1 (racemic) [Example 122] |
| 91% | 101 to 1200 nM |  | O=c1[nH]c(Cn2cccn2)nc2c1cnn2C1CCOCC1 [Example 26] |
| 100% | 101 to 1200 nM |  | O=c1[nH]c(CC2CCC2)nc2c1cnn2C1CCCN(CC(F)(F)F)C1 (racemic) [Example 192] |
| 95% | 1 to 100 nM |  | CC(C)Cc1nc2c(cnn2C2CCOC2)c(=O)[nH]1 (racemic) [Example 74] |
|  | 101 to 1200 nM | 90% | CC(Cc1nc2c(cnn2C2CCOCC2)c(=O)[nH]1)C(F)(F)F (single isomer, unassigned) [Example 132] |
| 82% | 101 to 1200 nM |  | O=c1[nH]c(CC2CCC2)nc2c1cnn2C1CCCNC1 (racemic) [Example 206] |
| 99% | 1 to 100 nM |  | O=c1[nH]c(Cc2cccc(C(F)(F)F)c2)nc2c1cnn2C1CCOC1 (racemic) [Example 85] |
| 93% | 101 to 1200 nM |  | O=c1[nH]c(CCC(F)(F)F)nc2c1cnn2C1CCOCC1 [Example 34] |
| 97% | 1 to 100 nM |  | CCOc1ccccc1Cc1nc2c(cnn2C2CCCOC2)c(=O)[nH]1 (racemic) [Example 93] |
| 92% | 101 to 1200 nM |  | O=c1[nH]c(CC2CCCC2)nc2c1cnn2C1CCCN(CC(F)(F)F)C1 (racemic) [Example 191] |
| 92% | 101 to 1200 nM |  | O=c1[nH]c(CC2CCOCC2)nc2c1cnn2C1CCOCC1 [Example 41] |
| 89% | 101 to 1200 nM |  | CN1CCCC(n2ncc3c(=O)[nH]c(Cc4ccccc4OC(F)(F)F)nc32)C1 (racemic) [Example 209] |
| 100% | 1 to 100 nM |  | O=c1[nH]c(Cc2ccc(F)cc2)nc2c1cnn2C1CCOCC1 [Example 140] |
| 95% | 101 to 1200 nM |  | N#Cc1cccc(Cc2nc3c(cnn3C3CCOC3)c(=O)[nH]2)c1 (racemic) [Example 89] |
| 98% | 1 to 100 nM |  | O=c1[nH]c(Cc2ccccc2C(F)(F)F)nc2c1cnn2C1CCOCC1 [Example 45] |
| 89% | 101 to 1200 nM |  | CCC(Cc1nc2c(cnn2C2CCCN(C(=O)c3ccccc3)C2)c(=O)[nH]1)C(F)(F)F (mixture of isomers) [Example 174] |
| 99% | 1 to 100 nM |  | O=c1[nH]c(CC2CCC2)nc2c1cnn2C1CCOC1 (single isomer, unassigned) [Example 132-6] |
| 88% | 101 to 1200 nM |  | CN1CCCC(n2ncc3c(=O)[nH]c(CC4CCC4)nc32)C1 (racemic) [Example 218] |
| 89% | 101 to 1200 nM |  | O=c1[nH]c(CC2CC2)nc2c1cnn2C1CCS(=O)(=O)CC1 [Example 237] |

| inhibition at 10 µM [1] | IC50 | % inhibition of PDE9A2 (at 10 micromolar concentration) (10 micromolar concentration, values above 100% adjusted to 100%) | SMILES |
| --- | --- | --- | --- |
| 97% | 1 to 100 nM |  | O=c1[nH]c(Cc2ccccc2OCC2CC2)nc2c1cnn2C1CCOCC1 [Example 55] |
| 86% | 101 to 1200 nM |  | Cc1nc(Cc2nc3c(cnn3C3CCOCC3)c(=O)[nH]2)c(C)s1 [Example 24] |
| 86% | 101 to 1200 nM |  | O=C(c1ccccc1)N1CCC(n2ncc3c(=O)[nH]c(Cc4ccccc4OC(F)(F)F)nc32)C1 (racemic) [Example 169] |
| 99% | 1 to 100 nM |  | O=c1[nH]c(CC2CCC2)nc2c1cnn2C1CCCOC1 (racemic) [Example 96] |
| 97% | 101 to 1200 nM |  | CCC(Cc1nc2c(cnn2C2CCCN(C(=O)OC(C)(C)C)C2)c(=O)[nH]1)C(F)(F)F (racemic) [Example 21] |
| 99% | 1 to 100 nM |  | CC[C@H](C)Cc1nc2c(cnn2C2CCOCC2)c(=O)[nH]1 [Example 128] |
| 95% | 1 to 100 nM |  | CCC(CC)Cc1nc2c(cnn2C2CCOC(C)C2)c(=O)[nH]1 (racemic) [Example 119] |
| 100% | 101 to 1200 nM |  | CN1CCCC(n2ncc3c(=O)[nH]c(CC4CCCC4)nc32)C1 (racemic) [Example 208] |
| 88% | 101 to 1200 nM |  | O=c1[nH]c(CC2CCCC2)nc2c1cnn2C1CCNCC1 [Example 195] |
| 97% | 1 to 100 nM |  | CC(=O)N1CCCC(n2ncc3c(=O)[nH]c(Cc4ccccc4)nc32)C1 (racemic) [Example 158] |
| 97% | 1 to 100 nM |  | COc1cccc(Cl)c1Cc1nc2c(cnn2C2CCOCC2)c(=O)[nH]1 [Example 33] |
| 87% | 101 to 1200 nM |  | O=c1[nH]c(Cc2ccccc2F)nc2c1cnn2C1CCCNC1 (racemic) [Example 204] |
| 100% | 1 to 100 nM |  | O=c1[nH]c(Cc2ccc(F)c(Br)c2)nc2c1cnn2C1CCOCC1 [Example 136] |
| 98% | 1 to 100 nM |  | O=c1[nH]c(Cc2ccccc2O)nc2c1cnn2C1CCOCC1 [Example 28] |
| 100% | 1 to 100 nM |  | O=c1[nH]c(CC2CCCCC2)nc2c1cnn2C1CCOCC1 [Example 144] |
| 99% | 1 to 100 nM |  | CN1CCC(n2ncc3c(=O)[nH]c(Cc4ccccc4OC(F)(F)F)nc32)C1 (racemic) [Example 211] |
| 95% | 101 to 1200 nM |  | COc1cccnc1Cc1nc2c(cnn2C2CCOCC2)c(=O)[nH]1 [Example 67] |
| 96% | 101 to 1200 nM |  | O=c1[nH]c(Cc2ccccn2)nc2c1cnn2C1CCCOC1 (racemic) [Example 94] |
| 94% | 1 to 100 nM |  | O=c1[nH]c(Cc2ccccn2)nc2c1cnn2C1CCOC1 (single isomer, unassigned) [Example 132-7] |
| 84% | 101 to 1200 nM |  | CCOc1ccccc1Cc1nc2c(cnn2C2CCOC(C)(C)C2)c(=O)[nH]1 (racemic) [Example 105] |
| 96% | 1 to 100 nM |  | N#Cc1ccccc1Cc1nc2c(cnn2C2CCOC2)c(=O)[nH]1 (racemic) [Example 88] |
| 99% | 1 to 100 nM |  | O=c1[nH]c(Cc2ccccc2Br)nc2c1cnn2C1CCOCC1 [Example 5] |
| 88% | 101 to 1200 nM |  | O=C(c1ccccc1)N1CCCC(n2ncc3c(=O)[nH]c(Cc4ccccn4)nc32)C1 (racemic) [Example 175] |
| 98% | 1 to 100 nM |  | O=c1[nH]c(CC2CCCCC2)nc2c1cnn2C1CCOC1 (racemic) [Example 75] |
